Tested on: hepatocellular carcinoma cell line Hub-7
Experiment: Cell proliferation assay, Hub-7 (CELL-TITER GLO)
Assay type: cell-based
Details: Hub-7 cells, 24 h incubation, cell viability by CELL-TITER GLO, top concentration 10 μM; read-out: EC50, Inhibition of Hub-7 Cell Proliferation
Procedure, shortened: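 Hub-7 cells, 4,000 per well, seeded overnight, then exposed 24 h to compound from 10 μM top in 3-fold serial dilution. Viability read by CELL-TITER GLO luminescence; EC50 derived and binned into potency categories.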

`C#Cc1ncc(C(=O)N2CCN(c3ccc(-c4cccc5scnc45)cc3)CC2)s1` [Compound D8, (4-(4-(Benzo[d]thiazol-4-yl)phenyl)piperazin-1-yl)(2-ethynylthiazol-5-yl)methanone] and `C#Cc1nc(C(=O)N2CCN(c3ccc(-c4cccc5ncsc45)cc3)CC2)cs1` [Compound D17, (4-(4-(Benzo[d]thiazol-7-yl)phenyl)piperazin-1-yl)(2-ethynylthiazol-4-yl)-methanone] cannot be ordered by EC50: 200 to 1000 nM for the first, ≤ 200 nM for the second.

`C#Cc1nc(C(=O)N2CCN(c3ccc(-c4cccc5ncsc45)cc3Cl)CC2)cs1` [Compound D9, (4-(4-(Benzo[d]thiazol-7-yl)-2-chlorophenyl)piperazin-1-yl)(2-ethynylthiazol-4-yl)methanone] and `C#Cc1nc(C(=O)N2CCN(c3ccc(-c4cccc5ncsc45)cc3C#N)CC2)cs1` [Compound D12, 5-(Benzo[d]thiazol-7-yl)-2-(4-(2-ethynylthiazole-4-carbonyl)piperazin-1-yl)-benzonitrile] cannot be ordered by EC50: ≤ 200 nM for the first, ≤ 200 nM for the second.

`C#Cc1nc(C(=O)N2CCN(c3ccc(-c4cccc5ncsc45)cn3)CC2)cs1` [Compound D10, (4-(5-(Benzo[d]thiazol-7-yl)pyridin-2-yl)piperazin-1-yl)(2-ethynylthiazol-4-yl)-methanone] and `C#Cc1nc(C(=O)N2CCN(c3cccc(-c4cccc5ncsc45)c3)CC2)cs1` [Compound D16, (4-(3-(Benzo[d]thiazol-7-yl)phenyl)piperazin-1-yl)(2-ethynylthiazol-4-yl)-methanone] cannot be ordered by EC50: ≤ 200 nM for the first, 200 to 1000 nM for the second.

`C#Cc1nc(C(=O)N2CCC(F)(c3ccc(-c4cccc5ncsc45)cc3)CC2)cs1` [Compound D11, (4-(4-(Benzo[d]thiazol-7-yl)phenyl)-4-fluoropiperidin-1-yl)(2-ethynylthiazol-4-yl)methanone] and `C#Cc1nc(C(=O)N2CCC(O)(c3ccc(-c4cccc5ncsc45)cc3)CC2)cs1` [Compound D14, (4-(4-(Benzo[d]thiazol-7-yl)phenyl)-4-hydroxypiperidin-1-yl)(2-ethynylthiazol-4-yl)methanone] cannot be ordered by EC50: ≤ 200 nM for the first, ≤ 200 nM for the second.

`C#Cc1nc(C(=O)N2CC(c3ccc(-c4cccc5ncsc45)cc3)C2)cs1` [Compound D13, (3-(4-(Benzo[d]thiazol-7-yl)phenyl)azetidin-1-yl)(2-ethynylthiazol-4-yl)-methanone] and `C#Cc1nc(C(=O)N2CCC(c3ccc(-c4cccc5ncsc45)cc3)CC2)cs1` [Compound D18, (4-(4-(Benzo[d]thiazol-7-yl)phenyl)piperidin-1-yl)(2-ethynylthiazol-4-yl)-methanone] cannot be ordered by EC50: ≤ 200 nM for the first, ≤ 200 nM for the second.

`C#Cc1nc(C(=O)N2CCC(c3cccc(-c4cccc5ncsc45)c3)CC2)cs1` [Compound D15, (4-(3-(Benzo[d]thiazol-7-yl)phenyl)piperidin-1-yl)(2-ethynylthiazol-4-yl)-methanone] and `C#Cc1nc(C(=O)N2CCC(c3ccc(-c4cccc5nn(C)cc45)cc3)CC2)cs1` [Compound D19, (2-Ethynylthiazol-4-yl)(4-(4-(2-methyl-2H-indazol-4-yl)phenyl)piperidin-1-yl)-methanone] cannot be ordered by EC50: 200 to 1000 nM for the first, ≤ 200 nM for the second.

`C#Cc1nc(C(=O)N2CCC(c3ccc(-c4cccc5c4cnn5C)cc3)CC2)cs1` [Compound D20, (2-Ethynylthiazol-4-yl)(4-(4-(1-methyl-1H-indazol-4-yl)phenyl)piperidin-1-yl)-methanone] and `C#Cc1nc(C(=O)N2CCC(c3ccc(-c4cccc5[nH]ncc45)cc3)CC2)cs1` [Compound D21, (4-(4-(1H-Indazol-4-yl)phenyl)piperidin-1-yl)(2-ethynylthiazol-4-yl)methanone] cannot be ordered by EC50: ≤ 200 nM for the first, ≤ 200 nM for the second.

`C#Cc1nc(C(=O)N2CCN(c3ccc(-c4cccc5c4cnn5C)cc3)CC2)cs1` [Compound D22, (2-Ethynylthiazol-4-yl)(4-(4-(1-methyl-1H-indazol-4-yl)phenyl)piperazin-1-yl)-methanone] and `C#Cc1nc(C(=O)N2CCN(c3ccc(-c4cccc5nn(C)cc45)cc3)CC2)cs1` [Compound D23, (2-Ethynylthiazol-4-yl)(4-(4-(2-methyl-2H-indazol-4-yl)phenyl)piperazin-1-yl)-methanone] cannot be ordered by EC50: ≤ 200 nM for the first, ≤ 200 nM for the second.

`C#Cc1nc(C(=O)N2CCC(c3ccc(C#N)cc3)CC2)cs1` [Compound D24, 4-(1-(2-Ethynylthiazole-4-carbonyl)piperidin-4-yl)benzonitrile] and `C#Cc1nc(C(=O)N2CCC(c3ccccc3)CC2)cs1` [Compound D29, (2-Ethynylthiazol-4-yl)(4-phenylpiperidin-1-yl)methanone] cannot be ordered by EC50: ≤ 200 nM for the first, 200 to 1000 nM for the second.

`C#Cc1nc(C(=O)N2CCN(c3ccc(-c4cccc5[nH]ncc45)cc3)CC2)cs1` [Compound D25, (4-(4-(1H-Indazol-4-yl)phenyl)piperazin-1-yl)(2-ethynylthiazol-4-yl)methanone] and `C#Cc1nc(C(=O)N2CCN(c3ccc(C#N)cc3)CC2)cs1` [Compound D26, 4-(4-(2-Ethynylthiazole-4-carbonyl)piperazin-1-yl)benzonitrile] cannot be ordered by EC50: ≤ 200 nM for the first, 200 to 1000 nM for the second.

`C#Cc1nc(C(=O)N2CCN(c3ccc([N+](=O)[O-])cc3)CC2)cs1` [Compound D27, (2-Ethynylthiazol-4-yl)(4-(4-nitrophenyl)piperazin-1-yl)methanone] and `C#Cc1nc(C(=O)N2CCN(c3ccccc3)CC2)cs1` [Compound D28, (2-Ethynylthiazol-4-yl)(4-phenylpiperazin-1-yl)methanone] cannot be ordered by EC50: ≤ 200 nM for the first, 200 to 1000 nM for the second.

First: C#Cc1nc(C(=O)N2CCc3ccccc3C2)cs1 [Compound D30, (3,4-Dihydroisoquinolin-2(1H)-yl)(2-ethynylthiazol-4-yl)methanone]
Second: C#Cc1nc(C(=O)N2CCC(O)CC2)cs1 [Compound D31, (2-Ethynylthiazol-4-yl)(4-hydroxypiperidin-1-yl)methanone]
The EC50 of the first is lower: 200 to 1000 nM for the first, > 5000 nM for the second. The first is the more potent here.

`C#Cc1nc(C(=O)N2CCCCC2CCO)cs1` (stereo not drawn) [Compound D32, (2-Ethynylthiazol-4-yl)(2-(2-hydroxyethyl)piperidin-1-yl)methanone] and `C#Cc1nc(C(=O)N2CCCCC2C(=O)OC)cs1` (stereo not drawn) [Compound D37, Methyl 1-(2-ethynylthiazole-4-carbonyl)piperidine-2-carboxylate] cannot be ordered by EC50: > 5000 nM for the first, > 5000 nM for the second.

`C#Cc1nc(C(=O)N2CCCC(CO)C2)cs1` (stereo not drawn) [Compound D33, (2-Ethynylthiazol-4-yl)(3-(hydroxymethyl)piperidin-1-yl)methanone] and `C#Cc1nc(C(=O)N2CCCC(O)C2)cs1` (stereo not drawn) [Compound D34, (2-Ethynylthiazol-4-yl)(3-hydroxypiperidin-1-yl)methanone] cannot be ordered by EC50: > 5000 nM for the first, > 5000 nM for the second.

`C#Cc1nc(C(=O)N2CCC(C(=O)OC)CC2)cs1` [Compound D35, Methyl 1-(2-ethynylthiazole-4-carbonyl)piperidine-4-carboxylate] and `C#Cc1nc(C(=O)N2CCCC(C(=O)OC)C2)cs1` (stereo not drawn) [Compound D36, Methyl 1-(2-ethynylthiazole-4-carbonyl)piperidine-3-carboxylate] cannot be ordered by EC50: > 5000 nM for the first, > 5000 nM for the second.

`C#Cc1nc(NC(=O)CCc2ccc(-c3cccc4ncsc34)cc2)cs1` [Compound E1, 3-(4-(benzo[d]thiazol-7-yl)phenyl)-N-(2-ethynylthiazol-4-yl)propanamide] and `C#Cc1nc(NC(=O)CCc2ccc(-c3cccc4c3cnn4C)cc2)cs1` [Compound E4, N-(2-Ethynylthiazol-4-yl)-3-(4-(1-methyl-1H-indazol-4-yl)phenyl)propanamide] cannot be ordered by EC50: 200 to 1000 nM for the first, ≤ 200 nM for the second.

First: C#Cc1nc(NC(=O)[C@@H](N)Cc2ccccc2)cs1 [Compound E2, (S)-2-Amino-N-(2-ethynylthiazol-4-yl)-3-phenylpropanamide]
Second: C#Cc1nc(NC(=O)[C@H](N)Cc2ccccc2)cs1 [Compound E3, (R)-2-Amino-N-(2-ethynylthiazol-4-yl)-3-phenylpropanamide]
The EC50 of the first is higher: 1000 to 5000 nM for the first, 200 to 1000 nM for the second. The second is the more potent here.

First: C#Cc1nc(NC(=O)[C@H](N)Cc2ccccc2C#N)cs1 [Compound E5, (R)-2-Amino-3-(2-cyanophenyl)-N-(2-ethynylthiazol-4-yl)propenamide]
Second: C#Cc1nc(NC(=O)[C@@H](N)Cc2ccccc2C#N)cs1 [Compound E8, (S)-2-Amino-3-(2-cyanophenyl)-N-(2-ethynylthiazol-4-yl)propenamide]
The EC50 of the first is lower: ≤ 200 nM for the first, 1000 to 5000 nM for the second. The first is the more potent here.

Compared with `C#Cc1nc(C(=O)NCCc2cccc(-c3cncs3)c2)cs1` [Compound E6, 2-Ethynyl-N-(3-(thiazol-5-yl)phenethyl)thiazole-4-carboxamide], `C#Cc1nc(C(=O)NCCc2cccc(-c3cscn3)c2)cs1` [Compound E7, 2-Ethynyl-N-(3-(thiazol-4-yl)phenethyl)thiazole-4-carboxamide] is higher in EC50: 200 to 1000 nM for the first, 1000 to 5000 nM for the second.

Compared with `C#Cc1nc(NC(=O)CCc2ccc3c(c2)OCO3)cs1` [Compound E9, 3-(Benzo[d][1,3]dioxol-5-yl)-N-(2-ethynylthiazol-4-yl)propanamide], `C#Cc1nc(NC(=O)c2ccccc2)cs1` [Compound E12, N-(2-Ethynylthiazol-4-yl)benzamide] is higher in EC50: 200 to 1000 nM for the first, 1000 to 5000 nM for the second. The first is the more potent here.

Compared with `C#Cc1nc(NC(=O)c2ccc3ccccc3n2)cs1` [Compound E10, N-(2-Ethynylthiazol-4-yl)quinoline-2-carboxamide], `C#Cc1nc(NC(=O)C=Cc2ccccc2)cs1` [Compound E11, N-(2-Ethynylthiazol-4-yl)cinnamamide] is lower in EC50: 1000 to 5000 nM for the first, 200 to 1000 nM for the second. The second is the more potent here.

Source: patent US20240101546A1, “HETEROARYL-ACETYLENES, PHARMACEUTICAL COMPOSITIONS THEREOF, AND THEIR THERAPEUTIC APPLICATIONS” (Eubulus Biotherapeutics Inc., priority 2020, published 2024)
